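Compound exposure: 48 hours, 5 concentrations, 96-well plates. At the GI50, growth is halved.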 The source made the active and inactive calls. No stated cut-off is given here; in the data, active = GI50 up to about 1.1 µM and inactive = higher.
Assays:
Assay in all cases: NCI anticancer screen, dose series, 48 h
[1] = test system: 786-0
[2] = test system: A549
[3] = test system: CAKI-1
[4] = test system: DU-145
[5] = test system: HCT-15
[6] = test system: HT-29
[7] = test system: MCF7
[8] = test system: MDA-MB-231
[9] = test system: Malme-3M
[10] = test system: NCI-H226
[11] = test system: NCI/ADR-RES
[12] = test system: PC-3
[13] = test system: SF-268
[14] = test system: SF-539
[15] = test system: SN12C
[16] = test system: SNB-75
[17] = test system: SR
[18] = test system: T47D
[19] = test system: U-251
[20] = test system: UO-31

Compound	GI50 [1]	GI50 [2]	GI50 [3]	GI50 [4]	GI50 [5] [µM]	GI50 [6]	GI50 [7]	GI50 [8]	GI50 [9]	GI50 [10]	GI50 [11]	GI50 [12]	GI50 [13]	GI50 [14]	GI50 [15]	GI50 [16]	GI50 [17]	GI50 [18]	GI50 [19]	GI50 [20]
CO/C=C(/C(=O)OC)c1ccccc1COc1cccc(C(F)(F)F)c1	8.09 µM (inactive)	2.91 µM (inactive)	4.84 µM (inactive)	11.6 µM (inactive)	4.19	4.14 µM (inactive)	5.35 µM (inactive)	7.89 µM (inactive)	1.41 µM (inactive)	1.89 µM (inactive)	5.31 µM (inactive)	7.43 µM (inactive)	8.77 µM (inactive)	4.97 µM (inactive)	8.28 µM (inactive)	7.01 µM (inactive)	0.646 µM (active)	15 µM (inactive)	3.22 µM (inactive)	4.17 µM (inactive)
COc1cc(OCc2ccc3nc(OC)c(OC)nc3c2)cc(OC)c1OC	> 10 µM (inactive)	> 10 µM (inactive)	> 10 µM (inactive)	> 10 µM (inactive)	> 10	> 10 µM (inactive)	> 10 µM (inactive)	> 10 µM (inactive)	> 10 µM (inactive)	> 10 µM (inactive)	> 10 µM (inactive)	> 3.08 µM (inactive)	> 10 µM (inactive)	> 10 µM (inactive)	> 10 µM (inactive)	> 10 µM (inactive)	> 10 µM (inactive)	> 10 µM (inactive)	> 10 µM (inactive)	> 10 µM (inactive)
CCCC(=O)Nc1cc(C(=O)N2C[C@@H]3C[C@]34C2=CC(=O)c2[nH]cc(C)c24)n(COC)c1	5.47 µM (inactive)	9.75 µM (inactive)	2.21 µM (inactive)	2.54 µM (inactive)	15.9	8.55 µM (inactive)	1.36 µM (inactive)	8.53 µM (inactive)	2.59 µM (inactive)	11.2 µM (inactive)	13.9 µM (inactive)	7.33 µM (inactive)	1.48 µM (inactive)	7.06 µM (inactive)	10.6 µM (inactive)	7.36 µM (inactive)	0.566 µM (active)	2.78 µM (inactive)	3.17 µM (inactive)	8.97 µM (inactive)
O=Cc1cc2c(o1)C(=O)c1ccccc1C2=O	1.25 µM (inactive)	1.32 µM (inactive)	2.84 µM (inactive)	0.212 µM (active)	0.281	0.581 µM (active)	0.213 µM (active)	3.07 µM (inactive)	0.153 µM (active)	1.07 µM (active)	1.81 µM (inactive)	2.53 µM (inactive)	1.55 µM (inactive)	0.427 µM (active)	0.279 µM (active)	0.434 µM (active)	0.459 µM (active)	1.72 µM (inactive)	0.851 µM (active)	1.42 µM (inactive)
COc1ccc(NC(=O)CC(=O)n2nc(C)c(/N=N/c3cccc(C)c3)c2C)cc1	> 100 µM (inactive)	> 100 µM (inactive)	> 100 µM (inactive)	> 100 µM (inactive)	> 100	> 100 µM (inactive)	> 100 µM (inactive)	> 100 µM (inactive)	> 100 µM (inactive)	> 100 µM (inactive)	> 100 µM (inactive)	> 100 µM (inactive)	> 100 µM (inactive)	> 100 µM (inactive)	> 100 µM (inactive)	40.8 µM (inactive)	91.6 µM (inactive)	> 100 µM (inactive)	54.1 µM (inactive)	> 100 µM (inactive)
COc1cc2c(/C=C3/C(=O)Nc4ccc(O)cc43)c(Cl)n(Cc3ccccc3)c2cc1C	0.222 µM (active)	0.975 µM (active)	0.408 µM (active)	1.16 µM (inactive)	1.27	0.75 µM (active)	1.18 µM (inactive)	6 µM (inactive)	0.24 µM (active)	0.948 µM (active)	0.574 µM (active)	0.897 µM (active)	0.678 µM (active)	0.392 µM (active)	6.17 µM (inactive)	0.979 µM (active)	0.356 µM (active)	4.93 µM (inactive)	0.69 µM (active)	3.76 µM (inactive)
CCN(CC)CCCC(C)NC(=O)c1cc(-c2nccn2C)nc2ccc(C)cc12 (configuration not stated)	> 100 µM (inactive)	> 100 µM (inactive)	> 100 µM (inactive)	> 100 µM (inactive)	> 100	> 100 µM (inactive)	64.7 µM (inactive)	> 100 µM (inactive)	> 100 µM (inactive)	> 100 µM (inactive)	> 100 µM (inactive)	> 100 µM (inactive)	> 100 µM (inactive)	> 100 µM (inactive)	> 10 µM (inactive)	> 100 µM (inactive)	< 0.01 µM (active)	> 100 µM (inactive)	> 100 µM (inactive)	> 100 µM (inactive)
CCN(CC)C(=S)/N=C(\SC(=S)N(CC)CC)c1ccccc1	> 65 µM (inactive)	20.8 µM (inactive)	26.9 µM (inactive)	27.9 µM (inactive)	27.7	0.392 µM (active)	3.6 µM (inactive)	5.65 µM (inactive)	22.4 µM (inactive)	28.5 µM (inactive)	35.5 µM (inactive)	26.9 µM (inactive)	41.6 µM (inactive)	51.4 µM (inactive)	48.6 µM (inactive)	24.1 µM (inactive)	0.391 µM (active)	25.2 µM (inactive)	58.5 µM (inactive)	27 µM (inactive)
Cc1cc(N(CCC#N)CCC#N)ccc1C(/N=N/c1ccc(C(=O)O)cc1)=N\NC(=O)c1ccccc1	41.3 µM (inactive)	25.8 µM (inactive)	> 100 µM (inactive)	71.4 µM (inactive)	20.9	17.3 µM (inactive)	22.8 µM (inactive)	57.8 µM (inactive)	22.5 µM (inactive)	40.9 µM (inactive)	66.8 µM (inactive)	26.1 µM (inactive)	53.8 µM (inactive)	16.3 µM (inactive)	47.3 µM (inactive)	34.3 µM (inactive)	6.08 µM (inactive)	43.8 µM (inactive)	34.8 µM (inactive)	42.7 µM (inactive)
COc1cccc2c1C(=O)c1c(O)c3c(c(O)c1C2=O)C[C@@](O)(C(C)=O)CC3OC1CC(OC2CC(N)C(O)C(C)O2)C(O)C(C)O1 (some centres not stated)	32.5 µM (inactive)	52.5 µM (inactive)	> 100 µM (inactive)	49.1 µM (inactive)	> 85.1	39.5 µM (inactive)	7.66 µM (inactive)	> 64.9 µM (inactive)	38.1 µM (inactive)	51.1 µM (inactive)	> 100 µM (inactive)	48.6 µM (inactive)	31.3 µM (inactive)	25.1 µM (inactive)	36.9 µM (inactive)	22.1 µM (inactive)	> 24.4 µM (inactive)	37.9 µM (inactive)	23.9 µM (inactive)	45.5 µM (inactive)
N#Cc1nc(CN2C(=O)c3ccccc3C2=O)oc1N	> 100 µM (inactive)	> 100 µM (inactive)	> 100 µM (inactive)	> 100 µM (inactive)	> 100	> 100 µM (inactive)	> 100 µM (inactive)	> 100 µM (inactive)	> 100 µM (inactive)	> 100 µM (inactive)	> 100 µM (inactive)	> 100 µM (inactive)	> 100 µM (inactive)	> 100 µM (inactive)	> 100 µM (inactive)	> 100 µM (inactive)	> 100 µM (inactive)	> 100 µM (inactive)	> 100 µM (inactive)	
N#CC(C#N)=C1SC(=N\c2ccccc2)/C(=N/c2ccccc2)N1c1ccccc1	14.8 µM (inactive)	58.9 µM (inactive)	11.8 µM (inactive)	42.9 µM (inactive)	2.03	24.2 µM (inactive)	13.4 µM (inactive)	7.8 µM (inactive)	22.2 µM (inactive)	23.4 µM (inactive)	26.4 µM (inactive)	7.6 µM (inactive)	19.3 µM (inactive)	10.1 µM (inactive)	23.9 µM (inactive)	30 µM (inactive)	3.03 µM (inactive)	5.38 µM (inactive)	15.6 µM (inactive)	12.7 µM (inactive)
CCOC(=O)/C=C(/C(=O)OCC)n1ccc(=O)n(Cc2cn(CCCCOC(C)=O)nn2)c1=O	> 100 µM (inactive)	> 100 µM (inactive)	23.3 µM (inactive)	> 100 µM (inactive)	59.4	> 100 µM (inactive)	60.3 µM (inactive)	> 100 µM (inactive)		32.9 µM (inactive)	> 100 µM (inactive)	> 100 µM (inactive)	> 100 µM (inactive)	> 100 µM (inactive)	> 100 µM (inactive)	> 100 µM (inactive)	> 100 µM (inactive)	> 100 µM (inactive)	> 100 µM (inactive)	> 100 µM (inactive)
Cc1cc2c(c(C(=O)NCC(=O)O)c1)Oc1c(cc(C)cc1C(=O)NCC(=O)O)S2	> 100 µM (inactive)	> 100 µM (inactive)	> 100 µM (inactive)	> 100 µM (inactive)	> 100	> 100 µM (inactive)	> 100 µM (inactive)	> 100 µM (inactive)	> 100 µM (inactive)	> 100 µM (inactive)	> 100 µM (inactive)	> 100 µM (inactive)	> 100 µM (inactive)	> 100 µM (inactive)	> 100 µM (inactive)	> 100 µM (inactive)	> 100 µM (inactive)	> 100 µM (inactive)	> 100 µM (inactive)	

Reference: ChEMBL document CHEMBL1201862, “PubChem BioAssay data set” (2004)
